Data: patent US9981044B2, “Activation of adaptive immune processes for the treatment of cancers and infectious diseases” (Susavion Biosciences, Inc., priority 2014, dated 2018)
Where a SMILES comes first, the peptide text is derived from it. Bridges are numbered along the chain shown (N, C = ends). Roman numbers before positions name the chains, in order.

Tests used:
[1] = tested on: ovarian cancer cell line ID8; experiment: Survival of mice implanted with ID8 cells; assay type: in vivo, C57Bl/6 mice
Method: Tumors were allowed to progress for 45 days before the animal were injected with svD2 every other day.
Female C57Bl/6 mice were implanted with ID8 cells. After allowing the cell to develop into tumors for 45 days, the animals received injections of svD2 every other day at a dose of 1 nmol/g body weight or 0.1 nmol/g body weight. Accumulation of ascites was monitored by weight of the animals as the result of expansion of the peritoneal cavity. […] Table 3 summarizes the survival data including a treatment with paclitaxel, which is a standard-of-care chemotherapeutic drug. The animals were given paclitaxel at a dose of 18 mg/kg body weight on days 45, 47 and 49 of the experiment.

[2] = tested on: Human peripheral blood mononuclear cells; experiment: Cytokine release by human PBMCs (cytokine antibody array); assay type: cell-based; settings: 4-hour treatment, svD2 100 nM
Method: The polypeptide svD2, synthesized in Example 1 above, was evaluated in terms of a number of biological activities thought to correlate with its effectiveness against cancer.

[3] = tested on: human PBMC cultures; experiment: Phagocytosis of opsonized microspheres in human PBMC cultures; assay type: cell-based; settings: for Beads/cell (mean ± SD): treated 20 h (50 nM svD2 or 100 ng/mL IFNγ), challenged 1 h with microspheres opsonized with rabbit antiserum, 15 cells
Method: Whether the peptide svD2 stimulates phagocytosis was studied in the human PBMC cultures. The cells were treated 20 h with vehicle (phosphate-buffered saline, PBS), 50 nM svD2 or 100 ng/mL IFNγ, and then challenged 1 h with microspheres. Cells were fixed with 2% formalin and washed with PBS. Beads in each cell were counted on microscope images, with 15 cells analyzed for each treatment.

[4] = tested on: peritoneal cells; experiment: Response of peritoneal cells in mice (flow cytometry); assay type: in vivo; settings: C57BL/6 mice
Method: The number of cells is indicated as a ratio of the total number of each cell type normalized to the number of cells in untreated control samples.
To examine whether svD2 effectively stimulates the immune system in vivo, the peptide was injected subcutaneously on alternate days into Th1-poised C57BL/6 strain mice at a dose of 1 μmole/kg.

[5] = Toxicity in vivo
[6] = Solubility of the polypeptide; assay type: physicochemical
Source text: svD2 in lyophilized form is a white fluffy powder using trifluoroacetate (TFA) or acetate as a counterion. Net polypeptide content with and without the counter ion was approximately 88% and 73%, respectively. The remainder was likely water of hydration of the highly polar polypeptide. Solubility of the polypeptide in water is high. In the preparation of aqueous pharmaceutical compositions of the polypeptide with any of the pharmaceutically acceptable carriers described above, concentrations of the polypeptide in isotonic saline of 10 mM, and possibly somewhat higher, can be readily achieved. According to representative embodiments, therefore, the polypeptide is administered to a subject suffering from cancer in an aqueous pharmaceutical composition having a polypeptide concentration generally from about 0.1 mM to about 10 mM, typically from about 0.1 mM to about 5 mM, and a pharmaceutically acceptable carrier.

[7] = paclitaxel 18 mg/kg on days 45, 47 and 49
[8] = svD2 0.1 nmol/g every other day from day 45
[9] = svD2 1 nmol/g every other day from day 45

## CC(=O)O[C@H]1C(=O)[C@@]2(C)[C@H]([C@H](OC(=O)c3ccccc3)[C@]3(O)C[C@H](OC(=O)[C@H](O)[C@@H](NC(=O)c4ccccc4)c4ccccc4)C(C)=C1C3(C)C)[C@]1(OC(C)=O)CO[C@@H]1C[C@@H]2O [Paclitaxel, paclitaxel, reference compound]
[1]; [7]
  Mean survival: 81.5 days
  Number of deaths: 10

## CC(C)[C@H](N)C(=O)N[C@@H](CO)C(=O)N[C@@H](CC(N)=O)C(=O)N[C@@H](CCC(N)=O)C(=O)N[C@@H](Cc1c[nH]cn1)C(=O)NCC(=O)NCC(=O)NCC(=O)N[C@@H](CO)C(=O)NCCCC[C@H](NC(=O)[C@H](CO)NC(=O)CNC(=O)CNC(=O)CNC(=O)[C@H](Cc1c[nH]cn1)NC(=O)[C@H](CCC(N)=O)NC(=O)[C@H](CC(N)=O)NC(=O)[C@H](CO)NC(=O)[C@@H](N)C(C)C)C(=O)NCCCC[C@H](NC(=O)[C@H](CCCCNC(=O)[C@H](CO)NC(=O)CNC(=O)CNC(=O)CNC(=O)[C@H](Cc1c[nH]cn1)NC(=O)[C@H](CCC(N)=O)NC(=O)[C@H](CC(N)=O)NC(=O)[C@H](CO)NC(=O)[C@@H](N)C(C)C)NC(=O)[C@H](CO)NC(=O)CNC(=O)CNC(=O)CNC(=O)[C@H](Cc1c[nH]cn1)NC(=O)[C@H](CCC(N)=O)NC(=O)[C@H](CC(N)=O)NC(=O)[C@H](CO)NC(=O)[C@@H](N)C(C)C)C(N)=O [svD2, [(VSNQHGGGS)2K]2K-NH2] (I: H-VSNQHGGGSKK-NH2 / II: H-VSNQHGGGSK / III: H-VSNQHGGGS / IV: H-VSNQHGGGS; amide I:10-IV:C, I:11-II:C, II:10-III:C; N-terminus assumed)
[2]
  Relative level of Eotaxin released: 47
  Relative level of Eotaxin-2 released: 470
  Relative level of GM-CSF released: 96
  Relative level of ICAM-1 released: 70
  Relative level of IFNγ released: 170
  Relative level of IL-1a released: 322
  Relative level of IL-12p70 released: 117
  Relative level of IL-15 released: 137
  Relative level of IL-17 released: 21
  Relative level of IL-21 released: 130
  Relative level of IP-10 released: 377
  Relative level of MCP-2 released: 97
  Relative level of MIG released: 94
  Relative level of PDGF-BB released: 82
  Relative level of TIMP-2 released: 285
  Relative level of TNF-α released: 138
  Relative level of TNF-β released: 93
[3]; human PBMC cultures, 50 nM svD2, 20 h
  Stimulation of phagocytic cells: does not significantly stimulate phagocytic cells
[3]
  Beads/cell (mean ± SD): 1.3 ± 1.8 Beads/cell
[4]; 1 nmole/g doses, flow cytometry 24 hours after each injection
  Memory B cells in the peritoneal cavity: increase in memory B cells
[4]; 1 μmole/kg subcutaneously on alternate days, 24 hours after the second injection
  Mature immune cells in peritoneal cells: several-fold increases
[4]; 1 μmole/kg subcutaneously, 24 hours after the first injection
  Changes in mature cell populations (CD3, CD8, NK1.1, CD19, CD69): small
[1]; both doses, 1 nmol/g and 0.1 nmol/g body weight
  Survival rate of mice implanted with ID8 cells: improved the survival rate
[1]; [8]
  Mean survival: 74.5 days
  Number of deaths: 4
[1]; [9]
  Mean survival: 74 days
  Number of deaths: 4
[5]
  Toxicity in treated mice: No evidence of toxicity
[6]; isotonic saline, saline or isotonic, read-out: Achievable concentration in isotonic saline
  solubility: ≥ 10 mM
[6]; water
  Solubility in water: high

B1: IFNγ: cytokine used as comparator treatment, 100 ng/mL in phagocytosis test (protein, UniProt P01579 24-161, looked up)
Interferon gamma: QDPYVKEAENLKKYFNAGHSDVADNGTLFLGILKNWKEESDRKIMQSQIVSFYFKLFKNFKDDQSIQKSVETIKEDMNVKFFNSNKKKRDDFEKLTNYSVTDLNVQRKAIHELIQVMAELSPAAKTGKRKRSQMLFRG
[2]
  Relative level of IL-21 released: (IFNγ, 100)
[3]
  Beads/cell (mean ± SD): 35.8 ± 12.6 Beads/cell
